GI50 data for one molecule are collected here from US10364247B2, “Preparation and use of novel protein kinase inhibitors” (Ruijin Hospital Affiliated to Shanghai Jiao Tong University …, priority 2015, dated 2019).

Test in all cases: Antiproliferative activity, kinase-dependent Ba/F3 cells (MTT/MTS)
Type in all cases: cell-based, murine

The target in experiment [1] is T1, BaF3-EML4-ALK (Homo sapiens, UniProt Q9UM73).
T1 construct: fused on or other part: Q9HC35 (Echinoderm microtubule-associated protein-like 4)
The conditions noted are these: 48 hours, cell viability, read-out: EML4-ALK IC50. In a few lines:
(§1)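 Murine Ba/F3 cells transformed with the indicated TEL- or EML4-fusion kinases, seeded at 20,000 cells/well in RPMI/10% FCS. Viability by MTT/MTS; IC50 as concentration reducing viability to 50% of DMSO vehicle control.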

Experiment [2] addresses T2, BaF3-TEL-INSR (Homo sapiens, UniProt P06213).
T2 construct: fused on or other part: P41212 (Transcription factor ETV6)
The conditions noted are these: 48 hours, cell viability, read-out: Tel-INSR IC50. The method, boiled down: as §1

The target in experiment [3] is T3, BaF3-TEL-TIE1 (Homo sapiens, UniProt P35590).
T3 construct: fused on or other part: P41212 (Transcription factor ETV6)
The settings on record: 48 hours, cell viability, read-out: tel-TIE1 IC50. In a few lines: as §1

Structures are written as SMILES.

T1 sequence (Q9UM73 whole entry, change not shown, the tested form may be a part): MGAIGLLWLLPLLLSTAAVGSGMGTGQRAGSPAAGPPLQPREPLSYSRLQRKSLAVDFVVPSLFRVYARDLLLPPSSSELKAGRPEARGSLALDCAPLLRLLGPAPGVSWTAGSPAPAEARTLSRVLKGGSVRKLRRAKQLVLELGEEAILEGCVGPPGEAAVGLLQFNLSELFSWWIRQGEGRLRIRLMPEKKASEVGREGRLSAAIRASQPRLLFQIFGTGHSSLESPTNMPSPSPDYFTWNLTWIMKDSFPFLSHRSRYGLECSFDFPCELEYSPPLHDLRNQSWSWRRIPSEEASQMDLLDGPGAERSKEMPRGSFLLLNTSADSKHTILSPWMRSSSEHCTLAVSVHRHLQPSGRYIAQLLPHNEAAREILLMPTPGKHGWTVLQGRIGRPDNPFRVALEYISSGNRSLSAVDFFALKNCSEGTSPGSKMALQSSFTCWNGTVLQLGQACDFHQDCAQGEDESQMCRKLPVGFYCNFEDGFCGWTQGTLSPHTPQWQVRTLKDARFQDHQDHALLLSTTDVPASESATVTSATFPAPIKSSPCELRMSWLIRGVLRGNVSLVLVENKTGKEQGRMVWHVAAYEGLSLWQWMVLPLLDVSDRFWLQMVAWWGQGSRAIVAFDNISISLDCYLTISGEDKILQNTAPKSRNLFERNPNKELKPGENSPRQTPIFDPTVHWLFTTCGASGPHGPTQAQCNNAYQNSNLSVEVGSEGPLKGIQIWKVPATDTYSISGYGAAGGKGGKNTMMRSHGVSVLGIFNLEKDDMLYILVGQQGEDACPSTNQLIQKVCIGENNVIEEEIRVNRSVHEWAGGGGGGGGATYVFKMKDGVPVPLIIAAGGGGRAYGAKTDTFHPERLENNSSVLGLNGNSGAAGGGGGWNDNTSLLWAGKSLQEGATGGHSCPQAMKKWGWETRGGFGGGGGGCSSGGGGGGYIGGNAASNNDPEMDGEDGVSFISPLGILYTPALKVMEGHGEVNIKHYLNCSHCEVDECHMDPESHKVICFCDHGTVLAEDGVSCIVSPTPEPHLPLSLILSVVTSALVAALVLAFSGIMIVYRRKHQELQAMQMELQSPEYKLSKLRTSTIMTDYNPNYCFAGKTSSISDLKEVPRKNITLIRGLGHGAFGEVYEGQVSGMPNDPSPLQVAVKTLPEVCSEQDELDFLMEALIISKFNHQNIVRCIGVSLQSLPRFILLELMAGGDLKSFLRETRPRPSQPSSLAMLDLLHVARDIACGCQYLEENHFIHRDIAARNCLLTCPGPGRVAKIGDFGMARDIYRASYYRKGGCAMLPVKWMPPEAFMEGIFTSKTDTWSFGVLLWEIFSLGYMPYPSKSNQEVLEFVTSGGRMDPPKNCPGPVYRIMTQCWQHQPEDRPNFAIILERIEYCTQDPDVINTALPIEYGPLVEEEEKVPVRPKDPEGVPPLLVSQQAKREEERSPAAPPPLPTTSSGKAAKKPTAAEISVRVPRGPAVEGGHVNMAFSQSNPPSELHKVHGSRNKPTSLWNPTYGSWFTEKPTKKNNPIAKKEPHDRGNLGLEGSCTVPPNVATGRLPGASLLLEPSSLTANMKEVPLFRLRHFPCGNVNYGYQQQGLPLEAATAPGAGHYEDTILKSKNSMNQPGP
T3 sequence (P35590 whole entry, change not shown, the tested form may be a part): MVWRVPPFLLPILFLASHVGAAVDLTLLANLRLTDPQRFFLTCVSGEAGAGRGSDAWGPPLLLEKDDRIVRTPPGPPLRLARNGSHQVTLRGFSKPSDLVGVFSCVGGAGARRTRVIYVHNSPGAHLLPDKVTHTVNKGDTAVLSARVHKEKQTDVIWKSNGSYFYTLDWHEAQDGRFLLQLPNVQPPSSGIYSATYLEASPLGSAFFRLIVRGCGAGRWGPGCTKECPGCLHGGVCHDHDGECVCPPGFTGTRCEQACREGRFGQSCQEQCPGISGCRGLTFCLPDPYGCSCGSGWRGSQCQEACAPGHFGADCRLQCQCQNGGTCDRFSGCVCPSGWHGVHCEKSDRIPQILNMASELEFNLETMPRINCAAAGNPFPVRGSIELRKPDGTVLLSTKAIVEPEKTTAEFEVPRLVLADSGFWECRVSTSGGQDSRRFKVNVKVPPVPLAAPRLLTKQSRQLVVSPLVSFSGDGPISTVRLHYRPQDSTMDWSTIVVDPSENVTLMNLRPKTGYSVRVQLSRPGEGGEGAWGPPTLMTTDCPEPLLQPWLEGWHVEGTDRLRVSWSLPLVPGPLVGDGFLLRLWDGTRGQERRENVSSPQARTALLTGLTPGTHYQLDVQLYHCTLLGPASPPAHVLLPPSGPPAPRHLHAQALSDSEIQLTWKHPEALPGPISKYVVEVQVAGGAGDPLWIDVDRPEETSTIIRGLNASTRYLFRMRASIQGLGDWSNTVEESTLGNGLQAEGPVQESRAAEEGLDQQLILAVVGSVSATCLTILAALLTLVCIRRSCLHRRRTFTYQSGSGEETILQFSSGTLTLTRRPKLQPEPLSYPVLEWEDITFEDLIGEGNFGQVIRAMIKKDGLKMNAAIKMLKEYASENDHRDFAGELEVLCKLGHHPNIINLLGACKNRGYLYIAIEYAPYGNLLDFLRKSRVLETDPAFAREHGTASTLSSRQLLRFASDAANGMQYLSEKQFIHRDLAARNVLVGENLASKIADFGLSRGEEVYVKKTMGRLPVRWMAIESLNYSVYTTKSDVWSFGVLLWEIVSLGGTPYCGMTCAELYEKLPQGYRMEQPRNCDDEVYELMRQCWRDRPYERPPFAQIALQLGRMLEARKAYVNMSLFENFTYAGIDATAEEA
T2 sequence (P06213 whole entry, stated change not applied, the tested form may be a part): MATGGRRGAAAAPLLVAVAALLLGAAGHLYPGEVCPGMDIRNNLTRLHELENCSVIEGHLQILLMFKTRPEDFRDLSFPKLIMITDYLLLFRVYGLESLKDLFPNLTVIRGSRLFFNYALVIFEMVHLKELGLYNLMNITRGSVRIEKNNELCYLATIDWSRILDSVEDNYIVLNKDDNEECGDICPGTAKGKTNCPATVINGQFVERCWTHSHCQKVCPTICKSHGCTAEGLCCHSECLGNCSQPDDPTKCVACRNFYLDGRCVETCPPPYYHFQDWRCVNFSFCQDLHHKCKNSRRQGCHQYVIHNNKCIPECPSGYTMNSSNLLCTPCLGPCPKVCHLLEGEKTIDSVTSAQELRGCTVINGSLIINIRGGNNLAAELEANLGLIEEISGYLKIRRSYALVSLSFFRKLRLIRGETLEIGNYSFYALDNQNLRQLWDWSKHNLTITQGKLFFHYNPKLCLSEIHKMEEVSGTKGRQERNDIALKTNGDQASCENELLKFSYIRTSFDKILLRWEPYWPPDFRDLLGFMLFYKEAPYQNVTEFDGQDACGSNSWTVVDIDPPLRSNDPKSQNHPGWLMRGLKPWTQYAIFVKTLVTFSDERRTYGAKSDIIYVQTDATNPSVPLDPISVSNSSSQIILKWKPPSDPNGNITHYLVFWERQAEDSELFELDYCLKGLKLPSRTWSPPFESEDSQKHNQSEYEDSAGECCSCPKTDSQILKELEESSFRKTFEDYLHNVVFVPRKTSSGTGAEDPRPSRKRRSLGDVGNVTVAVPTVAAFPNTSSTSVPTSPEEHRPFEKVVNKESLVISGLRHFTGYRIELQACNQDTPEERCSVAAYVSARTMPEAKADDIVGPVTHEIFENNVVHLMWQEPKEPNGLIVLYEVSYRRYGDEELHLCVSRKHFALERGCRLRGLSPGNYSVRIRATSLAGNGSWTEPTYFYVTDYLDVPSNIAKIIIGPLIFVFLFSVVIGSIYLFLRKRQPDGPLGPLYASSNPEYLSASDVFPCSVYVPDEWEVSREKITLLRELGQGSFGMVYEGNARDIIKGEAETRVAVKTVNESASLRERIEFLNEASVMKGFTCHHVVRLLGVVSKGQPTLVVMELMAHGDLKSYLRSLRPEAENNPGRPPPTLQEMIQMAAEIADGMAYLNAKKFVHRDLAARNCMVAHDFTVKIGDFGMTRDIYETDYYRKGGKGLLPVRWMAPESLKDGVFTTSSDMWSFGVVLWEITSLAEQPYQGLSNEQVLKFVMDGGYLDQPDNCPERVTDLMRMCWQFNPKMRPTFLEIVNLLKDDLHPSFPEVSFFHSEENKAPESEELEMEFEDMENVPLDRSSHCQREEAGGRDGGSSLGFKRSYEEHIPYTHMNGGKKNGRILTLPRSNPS

As to `Cc1ccc(Nc2ncc3c(n2)N(C)CN(c2cc(NC(=O)c4cccc(C(F)(F)F)c4)ccc2C)C3)cn1` [IA-9, N-(4-methyl-3-(1-methyl-7-((6-methylpyridin-3-yl)amino)-1,4-dihydropyrimido[4,5-d]pyrimidin-3(2H)-yl)phenyl)-3-(trifluoromethyl)benzamide], the GI50 in experiment [1] is 1.47 µM; in experiment [2], 0.869 µM; in experiment [3], 0.519 µM.
